Measured values as given in article PMC9522516, “A Simple and Portable Personal Glucose Meter Method Combined with Molecular Docking for Screening of Lipase Inhibitors” (Evidence-based Complementary and Alternative Medicine : eCAM, 2022).

Each compound was assayed against T1, Lipase (Diutina rugosa, UniProt P20261) (assay: lipase activity assay, personal glucose meter readout, % inhibition at […]).
T1 construct: gene LIP1
Format: biochemical

T1 sequence (P20261 16-549): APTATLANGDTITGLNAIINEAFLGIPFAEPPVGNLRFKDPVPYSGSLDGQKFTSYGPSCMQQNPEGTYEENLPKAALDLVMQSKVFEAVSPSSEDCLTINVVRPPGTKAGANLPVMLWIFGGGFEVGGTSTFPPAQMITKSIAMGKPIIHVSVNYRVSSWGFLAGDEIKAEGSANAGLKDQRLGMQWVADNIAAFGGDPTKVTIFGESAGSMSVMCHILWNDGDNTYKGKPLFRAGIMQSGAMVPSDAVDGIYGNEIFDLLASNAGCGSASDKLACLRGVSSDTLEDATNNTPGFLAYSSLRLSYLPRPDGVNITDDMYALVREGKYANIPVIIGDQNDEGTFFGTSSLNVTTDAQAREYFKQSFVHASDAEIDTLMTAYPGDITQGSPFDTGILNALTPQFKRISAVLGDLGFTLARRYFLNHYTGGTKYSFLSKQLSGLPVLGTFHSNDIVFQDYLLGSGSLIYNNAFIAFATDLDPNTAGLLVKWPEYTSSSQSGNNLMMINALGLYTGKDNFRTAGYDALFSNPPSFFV

In order of rising inhibition at 2000 µM:
1. O=C(/C=C/c1ccc(O)c(O)c1)O[C@H](Cc1ccc(O)c(O)c1)C(=O)O [Rosmarinic acid]  39.3 ± 3%
2. Oc1cc(O)c2c(c1)O[C@H](c1ccc(O)c(O)c1)[C@H](O)C2 [Epicatechin]  42.8 ± 1.8%
3. O=C(O[C@@H]1Cc2c(O)cc(O)cc2O[C@@H]1c1ccc(O)c(O)c1)c1cc(O)c(O)c(O)c1 [(−)-Epicatechin gallate]  46.5 ± 2.2%
4. Oc1cc(O)c2c(c1)O[C@H](c1cc(O)c(O)c(O)c1)[C@H](O)C2 [(−)-Epigallocatechin]  47.2 ± 1.6%
